Test results: patent US20250025473A1 (priority 2021, published 2025)

How the values were obtained:
AKT3 = biological target: T1, AKT3 (Homo sapiens, UniProt Q9Y243); experiment: HotSpot in vitro kinase assay, AKT3; type: biochemical
T1 construct: purchased Reaction Biology Corporation

[1] = tested on: primary vaginal epithelial cells; experiment: Proliferation and viability, primary vaginal epithelial cells; type: cell-based, human; settings: 10 or 50 μM, about 50% confluent primary vaginal epithelial cells, up to 120 h
Experimental: Results are presented as mean±SEM odu as a percentage of the DMSO control (n=2 independent experiments each conducted in duplicate for C and 1 experiment conducted in duplicate for D). Results in B-D were compared by ANOVA, *p<0.05, **p<0.01, ***p<0.001, ****p<0.0001).
Cell proliferation and viability were determined using the Cell Titer 96® Aqueous One Solution and optical density was determined using a SpectraMax® M5e Molecular Devices multidetection microplate reader. […] The cells were then fixed and stained for activated caspases (red) and SYTOX Green (for integrity of plasma membrane) by Image-iT™ LIVE red Poly Caspase Detection kit. Nuclei were stained with Hoechst. Images were acquired by laser confocal microscope ZeissLive/DuoScan equipped with oil immersion objectives 63×1.1 and captured in an optical slice of 0.37 μm with appropriate filters. Alternatively, immunoblots were prepared and probed with antibodies to cleaved PARP-1 or cleaved caspase 8.

HSV-2(G) [2] = experiment: HSV binding assay (gD Western blot); type: cell-based; settings: 10 μM, HaCat, 4 hours at 4° C.
[3] = tested on: phosphatidylserine (PtdS) and Akt; experiment: Translocation of PtdS and Akt to the outer leaflet after HSV-2 (confocal, non-permeabilized); type: cell-based, human; settings: 10 μM, HaCat, HSV-2(G)
Akt, PDPK1, PLCγ = experiment: HSV-induced phosphorylation of Akt, PDPK1 and PLCγ (confocal, biotinylation of cell surface proteins); type: cell-based, human; settings: 10 μM, HaCat
[4] = tested on: VSV-S (VSV pseudotyped with SARS-CoV-2 spike protein); type: cell-based
MDCK-MDR1 cells = settings: 5 μM
PKA = PKA (Homo sapiens, UniProt P17612); experiment: HotSpot in vitro kinase assay, PKA
PKCd = PKCd (Homo sapiens, UniProt Q05655); experiment: HotSpot in vitro kinase assay, PKCd; settings: read-out: Compound IC50, PKCd; in vitro kinase activity
Chain of PKCd (Q05655 whole entry): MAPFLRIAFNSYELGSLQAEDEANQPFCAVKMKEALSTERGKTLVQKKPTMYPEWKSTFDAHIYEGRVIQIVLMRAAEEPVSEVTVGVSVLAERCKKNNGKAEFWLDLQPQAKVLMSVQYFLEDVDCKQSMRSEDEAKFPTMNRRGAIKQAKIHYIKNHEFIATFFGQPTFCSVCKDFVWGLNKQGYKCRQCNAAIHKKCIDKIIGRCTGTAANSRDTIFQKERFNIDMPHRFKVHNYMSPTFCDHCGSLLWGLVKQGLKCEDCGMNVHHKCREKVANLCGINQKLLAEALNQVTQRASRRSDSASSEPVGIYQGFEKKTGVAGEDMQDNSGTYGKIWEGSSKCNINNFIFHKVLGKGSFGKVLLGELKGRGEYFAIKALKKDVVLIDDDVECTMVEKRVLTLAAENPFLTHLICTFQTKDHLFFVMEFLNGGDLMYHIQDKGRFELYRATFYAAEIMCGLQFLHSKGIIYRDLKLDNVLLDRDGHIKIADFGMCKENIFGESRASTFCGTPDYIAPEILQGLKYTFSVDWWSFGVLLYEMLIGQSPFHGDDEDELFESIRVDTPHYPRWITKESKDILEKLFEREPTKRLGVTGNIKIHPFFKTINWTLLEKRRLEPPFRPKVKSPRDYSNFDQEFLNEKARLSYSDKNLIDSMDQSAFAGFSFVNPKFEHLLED

HSV-2(G) [5] = experiment: Synchronized HSV infection (entry kinetics) plaque assay; settings: 10 μM, HaCat, 0.5, 1, 1.5 or 2 hours post-temperature shift

T1 sequence (Q9Y243 whole entry): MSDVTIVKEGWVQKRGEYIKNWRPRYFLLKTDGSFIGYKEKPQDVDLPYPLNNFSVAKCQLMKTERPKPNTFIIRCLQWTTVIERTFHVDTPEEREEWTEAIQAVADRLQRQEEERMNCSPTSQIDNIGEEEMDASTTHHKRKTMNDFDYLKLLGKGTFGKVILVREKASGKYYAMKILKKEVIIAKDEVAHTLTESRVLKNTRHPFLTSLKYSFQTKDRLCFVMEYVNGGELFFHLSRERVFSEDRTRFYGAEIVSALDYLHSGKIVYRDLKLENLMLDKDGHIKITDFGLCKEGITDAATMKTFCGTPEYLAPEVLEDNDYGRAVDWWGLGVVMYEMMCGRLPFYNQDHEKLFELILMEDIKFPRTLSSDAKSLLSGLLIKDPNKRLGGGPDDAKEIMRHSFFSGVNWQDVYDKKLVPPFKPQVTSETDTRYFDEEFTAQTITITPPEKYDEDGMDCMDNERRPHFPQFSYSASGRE

SMILES: CO[C@@H]1[C@H](N(C)C(=O)CCC(=O)NCc2cn(CCCS(=O)(=O)[O-])nn2)C[C@H]2O[C@]1(C)n1c3ccccc3c3c4c(c5c6ccccc6n2c5c31)C(=O)NC4.[Na+] [CIMSS]
- IC50 (AKT3; in vitro kinase activity, read-out: Compound IC50, AKT3): 157 nM
- inhibition at 10 µM (AKT3; read-out: inhibition of Akt3): > 75%
- cytotoxicity [1]: little or no cytotoxicity
- HSV binding to cells (HSV-2(G) [2]): did not block
- translocation of PtdS and Akt to the outer leaflet of the plasma membrane [3]: did not block
- pPDPK1 and pPLCγ signal by confocal microscopy (Akt, PDPK1, PLCγ; 15 and 30 minutes following viral infection): inhibited
- phosphorylation of PDPK1, PLCγ and Akt in the membrane fraction (Akt, PDPK1, PLCγ; 15 minutes of HSV exposure, biotinylation): reduced
- VSV-S infection (plaques or viral yields) [4]: inhibited
- VSV-S infection, percentage of GFP+ cells [4]: significantly reduced
- Recover %, MDCK Transport (MDCK-MDR1 cells): 96%
- fold less effective than staurosporine (IC50), PKA (PKA): ~46 fold
- IC50 (PKA; read-out: Compound IC50, PKA, in vitro kinase activity): 42.3 nM
- IC50 (PKCd): 3.64 nM
- viral plaque formation, synchronized infection (HSV-2(G) [5]): significant reduction
